Data on eleven compounds can be found in US4377697A, “Imidazole hydrazone and hydrazine derivatives” (priority 1982, dated 1983).

Values after ≈ are worked out from the molar mass of the structure shown. Structures can show the parent of a compound that is named as a salt. Where two headings read alike, the source gives them in different places.

For data set [1], the system named is Clostridium sporogenes. The data set is described as follows: in vitro anti-anaerobic assay, minimum inhibitory concentration. In kind it is cell-based, Clostridium sporogenes (ATCC 19404). The conditions noted are these: ATCC 19404, 24 hours at 37° C., range of three runs; for MIC: Clostridium sporogenes, ATCC19404, 24 h, read-out: Minimum Inhibitory Concentrations, Clostridium sporogenes. How it is done: (§1) The results of in vitro assays for a number of compounds according to the invention are given in Table 1, which follows the Examples.
(§2) These tests were conducted by mixing a series of decreasing amounts of the compound under test with a liquid nutrient medium that had been inoculated with one of the test organisms. These preparations were incubated for 24 hours at 37° C. under anaerobic conditions and were then examined for the presence of growth as indicated by the turbidity in the liquid medium. Results were recorded as the lowest concentrations, in mg/l, of test compound that prevented growth of the test organisms (minimal inhibitory concentrations). Each test was run three times and the range of results are indicated.

Data set [2] deals with Propionibacterium acnes. The description is as above. In kind it is cell-based, Propionibacterium acnes (ATCC 6919). The following applies: Cutibacterium acnes, ATCC6919, ATCC 6919, 24 hours at 37° C., range of three runs, read-out: Minimum Inhibitory Concentrations, Propionibacterium acnes. How it is done:
as §1, §2

Data set [3] concerns Desulfovibrio desulfuricans. The data set is described as follows: in vitro assay against non-pathogenic anaerobe, minimum inhibitory concentration. In kind it is cell-based. The following applies: 24 hours at 37° C., anaerobic, range of three runs; for MIC: Desulfovibrio desulfuricans, 24 h. How it is done:
These preparations were incubated for 24 hours at 37° C. under anaerobic conditions and were then examined for the presence of growth as indicated by the turbidity in the liquid medium. […] The tests were conducted as described for the pathogenic organisms discussed above.

In data set [4] the test system is Bacterioides fragilis. The data set is described as follows: in vitro anti-anaerobic assay, minimum inhibitory concentration. In kind it is cell-based, Bacterioides fragilis (ATCC 23745). The conditions noted are these: ATCC 23745, 24 hours at 37° C., range of three runs; for MIC: 24 h, read-out: Minimum Inhibitory Concentrations, Bacterioides fragilis. How it is done: as §1, §2

The subject of data set [5] is Candida albicans. The data set is described as follows: in vitro anti-fungal assay, minimum inhibitory concentration. In kind it is cell-based. How it is done: as §2
(§3) The tests were conducted as described for the anaerobic bacteria with the exception that the organisms were incubated aerobically and kept at 30° C., apart from C.albicans which was kept at 37° C. Each test was run in duplicate.

Data set [6] relates to Trichophyton mentagrophytes. The data set is described as above. In kind it is cell-based. The following applies: aerobic, 30° C., in duplicate, read-out: Minimum Inhibitory Concentrations, Trichophyton mentagrophytes. How it is done:
as §2, §3

Data set [7] relates to Microsporum canis. Described as above. In kind it is cell-based. The conditions noted are these: aerobic, 30° C., in duplicate, read-out: Minimum Inhibitory Concentrations, Microsporum canis. How it is done:
as §2, §3

Data set [8] concerns Trichophyton rubrum. The data set is described as above. In kind it is cell-based. The following applies: aerobic, 30° C., in duplicate, read-out: Minimum Inhibitory Concentrations, Trichophyton rubrum. How it is done:
as §2, §3

In data set [9] the test system is Epidermophyton floccosom. Described as above. In kind it is cell-based, Epidermophyton floccosum. The conditions noted are these: aerobic, 30° C., in duplicate, read-out: Minimum Inhibitory Concentrations, Epidermophyton floccosom. How it is done: as §2, §3
For data set [10] the following is noted: reported in the literature; cited from earlier work.
The test system of data set [11] is anaerobic bacteria. The following applies: known from the literature; cited from earlier work.
Where [12] appears, read: AIP-BREWER, read-out: Minimum Inhibitory Concentrations, D.desulfuricans AIP-BREWER.
The mark [13] stands for this setting: API SW2, read-out: Minimum Inhibitory Concentrations, D.desulfuricans API SW2.
The mark [14] stands for this setting: API-CORE, read-out: Minimum Inhibitory Concentrations, Desulfovibrio desulfuricans API-CORE.
Where [15] appears, read: strain 3153, aerobic, 37° C., in duplicate, read-out: Minimum Inhibitory Concentrations, C.albicans 3153.
Where [16] appears, read: strain A, aerobic, 37° C., in duplicate, read-out: Minimum Inhibitory Concentrations, Candida albicans A.
The mark [17] stands for this setting: strain B, aerobic, 37° C., in duplicate, read-out: Minimum Inhibitory Concentrations, C.albicans B.
The mark [18] stands for this setting: strain GB, aerobic, 37° C., in duplicate, read-out: Minimum Inhibitory Concentrations, C.albicans GB.

On to `Clc1ccc(NN=C2c3ccccc3CCCC2n2ccnc2)c(Cl)c1` (centres unmarked) [1 (a), 6-(1H-imidazol-1-yl)6,7,8,9-tetrahydro-5-benzocycloheptanone, 2,4-dichlorophenylhydrazone, hydrogen oxalate], for which the MIC in [1] was 0.5 to 2.5 µg/mL; in data set [2] it was 2.5 µg/mL; in data set [4], 1 to 2.5 µg/mL. Also, the “Minimum Inhibitory Concentrations, D.desulfuricans AIP-BREWER” value in [3] (AIP-BREWER) was 0.5 mg/L. The “Minimum Inhibitory Concentrations, D.desulfuricans API SW2” value in data set [3] (API SW2) came to 0.5 mg/L.

Regarding `Clc1ccc(NN=C2c3ccccc3CCCC2n2ccnc2)c(Cl)c1` (centres unmarked) [1 (b), 6-(1H-imidazol-1-yl)-6,7,8,9-tetrahydro-5-benzocycloheptanone, 2,4-dichlorophenylhydrazone, hydrochloride], the “Minimum Inhibitory Concentrations, Clostridium sporogenes” value in data set [1] (hydrochloride) fell in the range of 0.5 to 1.0 mg/L. Besides, the values for the MIC in data set [3] (setting [12]), in data set [3] (setting [13]) and in data set [3] (setting [14]) were 0.5 to 0.75 µg/mL, 0.5 to 1 µg/mL and 0.5 µg/mL, respectively. Also, the “Minimum Inhibitory Concentrations, Bacterioides fragilis” value in [4] (hydrochloride) lay in the range of 0.5 to 1.0 mg/L.

Regarding `Clc1ccc(NN=C2c3ccccc3CCCCC2n2ccnc2)c(Cl)c1` (centres unmarked) [1 (d), 6-(1H-Imidazol-1-yl)-7,8,9,10-tetrahydro-5(6H)-benzocyclooctanone, 2,4-dichlorophenylhydrazone hydrochloride], the MIC in data set [1] lay within 0.5 to 0.75 µg/mL; in [2], 0.5 to 2.5 µg/mL; in data set [3] (setting [12]) it was 0.5 to 1 µg/mL; in [3] (setting [13]) it was 0.5 to 0.75 µg/mL; in [3] (setting [14]), 0.5 to 2.5 µg/mL; in [4] it was 1 to 2.5 µg/mL.

For `Clc1ccc(NN=C2c3sccc3CCCC2n2ccnc2)c(Cl)c1` (centres unmarked) [1 (j), 7-(1H-Imidazol-1-yl)-4,5,6,7-tetrahydro-8H-cyclohepta[b]-thiophen-8-one, 2 ,4-dichlorophenylhydrazone hydrogen oxalate], the MIC in [1] was 1 to 2.5 µg/mL; in data set [2], 5 µg/mL; in data set [3] (setting [12]), 0.5 to 0.75 µg/mL; in data set [3] (setting [13]), 0.75 to 1 µg/mL; in data set [3] (setting [14]) it was 0.75 to 1 µg/mL; in [4], 0.75 to 1 µg/mL.

Regarding `Clc1cc(Cl)c(NN=C2c3ccc(Cl)cc3CCCC2n2ccnc2)c(Cl)c1` (centres unmarked) [3 (b), 2-Chloro-6-(1H-imidazol-1-yl)-6,7,8,9-tetrahydro-5-benzocycloheptanone,2,4,6-trichlorophenylhydrazone hydrochloride], the MIC was 0.75 to 1 µg/mL in [1]; 6.2 µg/mL in data set [5] (setting [15]); 6.2 µg/mL in data set [5] (setting [16]); 6.2 µg/mL in [5] (setting [17]); 6.2 µg/mL in data set [5] (setting [18]); 25 µg/mL in data set [6]. Also, the MIC is 25 µg/mL in data set [7]; 5 µg/mL in data set [2]; 0.75 µg/mL in [3] (setting [12]); 0.75 to 2.5 µg/mL in data set [3] (setting [13]); 0.75 to 1 µg/mL in data set [3] (setting [14]); 0.75 to 1 µg/mL in [4].

As for `Clc1cc(Cl)c(NN=C2c3ccccc3CCCCC2n2ccnc2)c(Cl)c1` (centres unmarked) [3 (c), 6-(1H-Imidazol-1-yl)-7,8,9,10-tetrahydro-5(6H)-benzocyclooctanone, 2,4,6-trichlorophenylhydrazone hydrochloride], the MIC was 0.5 to 1 µg/mL in data set [1]; 2.5 µg/mL in [2]; 0.5 to 0.75 µg/mL in data set [3] (setting [12]); 0.5 to 0.75 µg/mL in data set [3] (setting [13]); 0.75 to 1 µg/mL in data set [3] (setting [14]); 2.5 µg/mL in [4].

Turning to `Clc1cc(Cl)c(NN=C2c3ccccc3CCCC2n2ccnc2)c(Cl)c1` (centres unmarked) [3 (d), 6-(1H-Imidazol-1-yl)-6,7,8,9-tetrahydro-5-benzocycloheptanone, 2,4,6-trichlorophenylhydrazone hydrogen oxalate], the MIC is 12.5 µg/mL in data set [5] (setting [15]); 6.2 µg/mL in data set [5] (setting [16]); 6.2 µg/mL in data set [5] (setting [17]); 12.5 µg/mL in data set [5] (setting [18]); over 100 µg/mL in data set [6]; 6.2 µg/mL in data set [7]. In data set [8], the MIC turned out to be 1.5 µg/mL.

For the compound `Cl.Clc1cc(Cl)c(NN=C2c3ccccc3OCCC2n2ccnc2)c(Cl)c1` (centres unmarked) [3 (i), 3,4-Dihydro-4-(1H-imidazol-1-yl)-1-benzoxepin-5(2H)-one, 2,4,6-trichlorophenylhydrazone hydrochloride], the MIC in [9] amounted to 3.1 µg/mL; in [5] (setting [15]), 12.5 µg/mL; in data set [5] (setting [16]), 12.5 µg/mL; in [5] (setting [17]) it was 12.5 µg/mL; in data set [6] it was 3.1 µg/mL; in [7], 3.1 µg/mL. Further, the MIC in [8] stood at 6.2 µg/mL.

Regarding `Clc1cc(Cl)c(NN=C2c3ccsc3CCCC2n2ccnc2)c(Cl)c1` (centres unmarked) [3 (l), 5-(1H-Imidazol-1-yl)-5,6,7,8-tetrahydro-4H-cyclohepta[b]thiophen-4-one,2,4,6-trichlorophenylhydrazone hydrogen oxalate], the MIC came out at 6.2 µg/mL in data set [9]; 12.5 µg/mL in data set [5] (setting [15]); 6.2 µg/mL in [5] (setting [16]); 6.2 µg/mL in data set [5] (setting [17]); 25 µg/mL in data set [6]; 12.5 µg/mL in data set [7]. Further, in [8], the MIC was found to be 12.5 µg/mL.

Turning to `Cc1ncc([N+](=O)[O-])n1CCO` [Metronidazole, metronidazole, reference compound], the MIC is 0.5 µg/mL (≈ 2.92 µM) in [1]; over 100 µg/mL in data set [2]; 0.5 µg/mL (≈ 2.92 µM) in data set [3] (setting [12]); 0.5 µg/mL (≈ 2.92 µM) in data set [3] (setting [13]); 0.5 µg/mL (≈ 2.92 µM) in data set [3] (setting [14]); 0.5 µg/mL (≈ 2.92 µM) in data set [4]. Besides, the teratogenicity entry in data set [10] is “teratogenic”. Moreover, the “activity against anaerobic bacteria” value in [11] is on record as “active against anaerobic bacteria”.

As for `Clc1ccc(COC(Cn2ccnc2)c2ccc(Cl)cc2Cl)c(Cl)c1` (centres unmarked) [Miconazole, reference compound], the MIC turned out to be 6.2 µg/mL (≈ 14.9 µM) in data set [9]; 12.5 µg/mL (≈ 30 µM) in [5] (read-out: Minimum Inhibitory Concentrations, C.albicans 3153); 6.2 µg/mL (≈ 14.9 µM) in data set [5] (read-out: Minimum Inhibitory Concentrations, C.albicans B); 12.5 µg/mL (≈ 30 µM) in data set [5] (read-out: Minimum Inhibitory Concentrations, C.albicans GB); 6.2 µg/mL (≈ 14.9 µM) in data set [5] (read-out: Minimum Inhibitory Concentrations, Candida albicans A); 1.5 µg/mL (≈ 3.6 µM) in data set [6]. Moreover, the results for the MIC in [7] and in data set [8] were 6.2 µg/mL (≈ 14.9 µM) and 3.1 µg/mL (≈ 7.45 µM), respectively.
